In US20090099169A1, “Benzofuran Compounds As EP1 Receptor Antagonists” (GLAXO GROUP LIMITED, priority 2006, published 2009):
Counter-ions that a name gives are not always drawn.

Tests used:
[1] = biological target: T1, human EP1 receptor (Homo sapiens, UniProt P34995); experiment: human EP1 calcium mobilisation assay; assay type: cell-based; design: expressed in transfected cells; conditions: CHO-K1 cells, antagonism of PGE2; averages of a number of experiments; read-out: functional pKi value (human EP1 calcium mobilisation assay) (converted)
T1 sequence (P34995 1-402): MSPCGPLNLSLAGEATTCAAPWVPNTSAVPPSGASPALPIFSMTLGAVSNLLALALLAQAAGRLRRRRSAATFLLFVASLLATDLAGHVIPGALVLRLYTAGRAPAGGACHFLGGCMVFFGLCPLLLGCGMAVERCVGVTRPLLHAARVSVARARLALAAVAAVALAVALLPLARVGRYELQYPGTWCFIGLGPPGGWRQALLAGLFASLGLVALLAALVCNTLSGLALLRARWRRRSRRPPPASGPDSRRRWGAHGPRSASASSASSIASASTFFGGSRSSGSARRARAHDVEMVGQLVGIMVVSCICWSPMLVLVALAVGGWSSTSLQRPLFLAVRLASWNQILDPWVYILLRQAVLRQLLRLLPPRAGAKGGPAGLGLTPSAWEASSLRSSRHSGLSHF
Description: (§1) Briefly, the antagonist properties of compounds are assessed by their ability to inhibit the mobilisation of intracellular calcium ([Ca^2+]i) in response to activation of EP1 or EP3 receptors by the natural agonist hormone prostaglandin E2 (PGE2). Increasing concentrations of antagonist reduce the amount of calcium that a given concentration of PGE2 can mobilise. The net effect is to displace the PGE2 concentration-effect curve to higher concentrations of PGE2. The amount of calcium produced is assessed using a calcium-sensitive fluorescent dye such as Fluo-4, AM and a suitable instrument such as a Fluorimetric Imaging Plate Reader (FLIPR). Increasing amounts of [Ca^2+]i produced by receptor activation increase the amount of fluorescence produced by the dye and give rise to an increasing signal. The signal may be detected using the FLIPR instrument and the data generated may be analysed with suitable curve-fitting software.
(§2) The human EP1 or EP3 calcium mobilisation assay (hereafter referred to as ‘the calcium assay’) utilises Chinese hamster ovary-K1 (CHO-K1) cells into which a stable (PCIN; BioTechniques 20 (1996): 102-110) vector containing either EP1 or EP3 cDNA has previously been transfected. Cells are cultured in suitable flasks containing culture medium such as DMEM:F-12 supplemented with 10% v/v foetal calf serum, 2 mM L-glutamine, 0.25 mg/ml geneticin, 100 μM flurbiprofen and 10 μg/ml puromycin.
(§3) For assay, cells are harvested using a proprietary reagent that dislodges cells such as Versene. Cells are re-suspended in a suitable quantity of fresh culture media for introduction into a 384-well plate. Following incubation for 24 hours at 37° C. the culture media is replaced with a medium containing Fluo-4 and the detergent pluronic acid, and a further incubation takes place. Concentrations of compounds are then added to the plate in order to construct concentration-effect curves. This may be performed on the FLIPR in order to assess the agonist properties of the compounds. Concentrations of PGE2 are then added to the plate in order to assess the antagonist properties of the compounds.
(§4) The data so generated may be analysed by means of a computerised curve-fitting routine. The concentration of compound that elicits a half-maximal inhibition of the calcium mobilisation induced by PGE2 (pIC50) may then be estimated.

[2] = biological target: T2, human EP3 receptor (Homo sapiens, UniProt P43115); experiment: human EP3 calcium mobilisation assay; assay type: cell-based; conditions: CHO-K1 cells, antagonism of PGE2; averages of a number of experiments; read-out: functional pKi value (human EP3 calcium mobilisation assay) (converted)
T2 construct: expressed in transfected cells; host or cells: CHO-K1
T2 sequence (P43115 1-390): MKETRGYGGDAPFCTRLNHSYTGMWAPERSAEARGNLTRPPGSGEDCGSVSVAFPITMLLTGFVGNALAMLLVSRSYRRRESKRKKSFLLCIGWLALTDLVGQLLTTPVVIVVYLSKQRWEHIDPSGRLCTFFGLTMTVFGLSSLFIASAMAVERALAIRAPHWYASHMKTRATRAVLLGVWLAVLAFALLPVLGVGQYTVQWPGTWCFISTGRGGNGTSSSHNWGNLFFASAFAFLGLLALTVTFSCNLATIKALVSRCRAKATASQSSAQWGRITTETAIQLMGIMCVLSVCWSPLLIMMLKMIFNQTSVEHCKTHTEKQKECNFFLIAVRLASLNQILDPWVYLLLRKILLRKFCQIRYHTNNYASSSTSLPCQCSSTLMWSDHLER
Description: as §1, §2, §3, §4

[3] = biological target: T1, human EP1 receptor; experiment: Binding assay for the human prostanoid EP1 receptor (radioligand competition); design: expressed in transfected cells; host or cells: CHO-K1 (membranes); conditions: CHO-K1 membranes; [3H]-PGE2 for Examples 1-17, 19, 33, 34, 60 and 61, 3-{2-[5-Bromo-2-(2,4-difluorobenzyloxy)-phenyl]-5-methyl-pyrrol-1-yl}-6-[3H3-methoxy]methoxy-benzoic acid for the remaining; averages of a number of experiments; read-out: pIC50 value (binding assay for the human prostanoid EP1 receptor) (converted)
Description: Compound potencies are determined using a radioligand binding assay. In this assay compound potencies are determined from their ability to compete with tritiated prostaglandin E2 ([^3H]-PGE2) for binding to the human EP1 receptor.
This assay utilises Chinese hamster ovary-K1 (CHO-K1) cells into which a stable vector containing the EP1 cDNA has previously been transfected. Cells are cultured in suitable flasks containing culture medium such as DMEM:F-12 supplemented with 10% v/v foetal calf serum, 2 mM L-glutamine, 0.25 mg/ml geneticin, 10 μg/ml puromycin and 10 μM indomethacin.
Cells are detached from the culture flasks by incubation in calcium and magnesium free phosphate buffered saline containing 1 mM disodium ethylenediaminetetraacetic acid (Na2EDTA) and […] indomethacin for 5 min. The cells are isolated by centrifugation at 250×g for 5mins and suspended in an ice cold buffer such as 50 mM Tris, 1 mM Na2EDTA, 140 mM NaCl, 10 μM indomethacin (pH 7.4). The cells are homogenised using a Polytron tissue disrupter (2×10 s burst at full setting), centrifuged at 48,000×g for 20mins and the pellet containing the membrane fraction is washed (optional) three times by suspension and centrifugation at 48,000×g for 20mins. The final membrane pellet is suspended in an assay buffer such as 10 mM 2-[N-morpholino]ethanesulphonic acid, 1 mM Na2EDTA, 10 mM MgCl2 (pH 6). Aliquots are frozen at −80° C. until required.
(§5) For the binding assay the cell membranes, competing compounds and [^3H]-PGE2 (3 nM final assay concentration) are incubated in a final volume of 100 μl for 30 min at 30° C. All reagents are prepared in assay buffer. Reactions are terminated by rapid vacuum filtration over GF/B filters using a Brandell cell harvester. The filters are washed with ice cold assay buffer, dried and the radioactivity retained on the filters is measured by liquid scintillation counting in Packard TopCount scintillation counter.
The data are analysed using non linear curve fitting techniques to determine the concentration of compound producing 50% inhibition of specific binding (IC50).
Alternatively a similar assay may be carried out using 3-{2-[5-Bromo-2-(2,4-difluoro-benzyloxy)-phenyl]-5-methyl-pyrrol-1-yl}-6-[^3H3-methoxy]methoxy-benzoic acid instead of [^3H]-PGE2.
For the binding assay using 3-{2-[5-Bromo-2-(2,4-difluoro-benzyloxy)-phenyl]-5-methyl-pyrrol-1-yl}-6-[^3H3-methoxy]methoxy-benzoic acid instead of [^3H]-PGE2 the assay is carried out using a similar procedure to that described above using [^3H]-PGE2 with the following changes:
as §5, with “The” for “For the binding assay the”, “3-{2-[5-Bromo-2-(2,4-difluoro-benzyloxy)-phenyl]-5-methyl-pyrrol-1-yl}-6-[^3H3-methoxy]methoxy-benzoic acid (0.2” for “[^3H]-PGE2 (3”, “400” for “100”, “45” for “30”, “37°” for “30°”, “water at ambient temperature,” for “ice cold assay buffer,”
The preparation of 3-{2-[5-Bromo-2-(2,4-difluoro-benzyloxy)-phenyl]-5-methyl-pyrrol-1-yl}-6-methoxy-benzoic acid is described in WO 03/101959 and in Hall et al, Biorg. Med. Chem. Lett., 2007, 17, 916-920. The tritiated version may be prepared via conventional routes, e.g. from 3-{2-[5-bromo-2-(2,4-difluoro-benzyloxy)-phenyl]-5-methyl-pyrrol-1-yl}-6-hydroxy-benzoic acid or 3-{2-[5-bromo-2-(2,4-difluoro-benzyloxy)-phenyl]-5-methyl-pyrrol-1-yl}-6-hydroxy-benzoic acid methyl ester.

| Structure (SMILES) | Ki [1] | Ki [2] | IC50 [3] |
| --- | --- | --- | --- |
| Cc1cc(C(=O)N2CCOCC2)nn1Cc1cc(Cl)cc2cc(C3CC3)oc12 [Example 32, 4-({1-[(5-chloro-2-cyclopropyl-1-benzofuran-7-yl)methyl]-5-methyl-1H-pyrazol-3-yl}carbonyl)morpholine] | ≤ 316 nM | 501 to 10000 nM |  |
| CC(C)NC(=O)c1ccc(Cc2cc(Cl)cc3cc(C(C)C)oc23)o1 [Example 38, 5-{[5-Chloro-2-(1-methylethyl)-1-benzofuran-7-yl]methyl}-N-(1-methylethyl)-2-furancarboxamide] |  | 501 to 10000 nM |  |
| CC(C)c1cc2cc(Cl)cc(Cc3ccc(C(=O)NN(C)C)o3)c2o1 [Example 39, 5-{[5-Chloro-2-(1-methylethyl)-1-benzofuran-7-yl]methyl}-N′,N′-dimethyl-2-furancarbohydrazide] | ≤ 316 nM | 501 to 10000 nM |  |
| CC(C)c1cc2cc(Cl)cc(Cc3cccc(C(=O)NN4CCOCC4)n3)c2o1 [Example 44, 6-{[5-Chloro-2-(1-methylethyl)-1-benzofuran-7-yl]methyl}-N-4-morpholinyl-2-pyridinecarboxammide] | ≤ 316 nM | 501 to 10000 nM | ≤ 100 nM |
| CC(C)c1cc2cc(Cl)cc(Cc3cccc(C(=O)NCC4CCNCC4)n3)c2o1 [Example 47, 6-{[5-Chloro-2-(1-methylethyl)-1-benzofuran-7-yl]methyl}-N-(4-piperidinylmethyl)-2-pyridinecarboxamidehydrochloride] |  | 501 to 10000 nM |  |
| Cc1cc(C(=O)Nc2ccc(CN3CCCC3)cc2)nn1Cc1cc(Br)cc2cc(C(C)C)oc12 [Example 51, 1-{[5-Bromo-2-(1-methylethyl)-1-benzofuran-7-yl]methyl}-5-methyl-N-[4-(1-pyrrolidinylmethyl)phenyl]-1H-pyrazole-3-carboxamidehydrochloride] | ≤ 316 nM | 501 to 10000 nM | ≤ 100 nM |
| CC(C)c1cc2cc(Cl)cc(Cc3ccc(C(=O)Nc4ccc(CN5CCCC5)cc4)o3)c2o1 [Example 53, 5-{[5-Chloro-2-(1-methylethyl)-1-benzofuran-7-yl]methyl}-N-[4-(1-pyrrolidinylmethyl)phenyl]-2-furancarboxamide] | ≤ 316 nM | 501 to 10000 nM | ≤ 100 nM |
| CCNCc1ccc(NC(=O)c2ccc(Cc3cc(Cl)cc4cc(C(C)C)oc34)o2)cc1 [Example 56, 5-{[5-Chloro-2-(1-methylethyl)-1-benzofuran-7-yl]methyl}-N-{4-[(ethylamino)methyl]phenyl}-2-furancarboxamide Hydrochloride] | ≤ 316 nM | 501 to 10000 nM |  |

Next, values leading:

| Ki [1] | Ki [2] | IC50 [3] | Structure (SMILES) |
| --- | --- | --- | --- |
| ≤ 316 nM | 501 to 10000 nM |  | Cc1cc(NC(=O)OCC2CCNCC2)nn1Cc1cc(Cl)cc2cc(C(C)C)oc12 [Example 4, 4-Piperidinylmethyl (1-{[5-chloro-2-(1-methylethyl)-1-benzofuran-7-yl]methyl}-5-methyl-1H-pyrazol-3-yl)carbamate Hydrochloride] |
| ≤ 316 nM | 501 to 10000 nM | ≤ 100 nM | CCCc1cc2cc(Cl)cc(Cn3nc(C(=O)O)cc3C)c2o1 [Example 21, 1-[(5-chloro-2-propyl-1-benzofuran-7-yl)methyl]-5-methyl-1H-pyrazole-3-carboxylic Acid] |
| ≤ 316 nM | 501 to 10000 nM | ≤ 100 nM | Cc1cc(C(=O)O)nn1Cc1cc(S(C)(=O)=O)cc2cc(C(C)C)oc12 [Example 22, 5-methyl-1-{[2-(1-methylethyl)-5-(methylsulfonyl)-1-benzofuran-7-yl]methyl}-1H-pyrazole-3-carboxylic Acid] |
| ≤ 316 nM | 501 to 10000 nM | ≤ 100 nM | Cc1cc(C(=O)O)nn1Cc1cc(Cl)cc2cc(C3CCCCC3)oc12 [Example 26, 1-[(5-Chloro-2-cyclohexyl-1-benzofuran-7-yl)methyl]-5-methyl-1H-pyrazole-3-carboxylic Acid] |
| ≤ 316 nM |  | ≤ 100 nM | Cc1cc(C(=O)NC2CCOCC2)nn1Cc1cc(Cl)cc2cc(C(C)C)oc12 [Example 60, 1-{[5-chloro-2-(1-methylethyl)-1-benzofuran-7-yl]methyl}-5-methyl-N-(tetrahydro-2H-pyran-4-yl)-1H-pyrazole-3-carboxamide] |
| ≤ 316 nM |  | ≤ 100 nM | Cc1cc(NC(=O)C(C)C)nn1Cc1cc(C#N)cc2cc(C(C)C)oc12 [Example 68, N-(1-{[5-Cyano-2-(1-methylethyl)-1-benzofuran-7-yl]methyl}-5-methyl-1H-pyrazol-3-yl)-2-methylpropanamide] |
